The source of these data is ChEMBL document CHEMBL3871274 (Eur J Med Chem, 2016).

Assay [1] can be described thus: Growth inhibition of human HCT116 cells after 96 hrs by MTS assay. The note with it: HCT-116, 96 h. In kind it is functional.
In assay [2] the target is T1, Aurora kinase B (Homo sapiens, UniProt Q96GD4).
For assay [3], the target named is Aurora kinase C (Homo sapiens) (UniProt Q9UQB9). Nature of the assay: Inhibition of human recombinant full-length GST-tagged Aurora C expressed in baculovirus expression system at 1 uM.
Assay [4] has as its target Vascular endothelial growth factor receptor 1 (Homo sapiens, UniProt P17948). Briefly: Inhibition of human recombinant GST-tagged FLT1 cytoplasmic domain (781 to 1338 residues) expressed in baculovirus expression system at 1 uM.
The target in assay [5] is Rho-associated protein kinase 2 (Homo sapiens) (UniProt O75116). Briefly: Inhibition of human recombinant N-terminal GST-tagged ROCK2 catalytic domain (1 to 552 residues) expressed in baculovirus expression system at 1 uM.
Assay [6] concerns the target Proto-oncogene tyrosine-protein kinase receptor Ret (Homo sapiens) (UniProt P07949). Nature of the assay: Inhibition of human recombinant GST-tagged RET cytoplasmic domain (658 to 1114 residues) expressed in baculovirus expression system at 1 uM.
For assay [7], the target named is Angiopoietin-1 receptor (Homo sapiens) (UniProt Q02763). Briefly: Inhibition of human recombinant GST-tagged TEK cytoplasmic domain (817 to 1101 residues) expressed in baculovirus expression system at 1 uM.
In assay [8] the target is Cyclin-dependent kinase 2 (Homo sapiens) (UniProt P24941). Nature of the assay: Inhibition of CDK2 (unknown origin) at 1 uM.
For assay [9], the target named is Phosphatidylinositol 4-phosphate 3-kinase C2 domain-containing subunit beta (Homo sapiens) (UniProt O00750). Nature of the assay: Inhibition of human recombinant N-terminal GST-tagged PIK3C2B (155 to 1383 residues) catalytic domain expressed in baculovirus expression system at 1 uM.
Assay [10] deals with High affinity nerve growth factor receptor (Homo sapiens) (UniProt P04629). Briefly: Inhibition of human recombinant His-tagged NTRK1 cytoplasmic domain (441 to 796 residues) expressed in baculovirus expression system at 1 uM.
Chain of High affinity nerve growth factor receptor (Homo sapiens) (P04629 33-796 limits assumed): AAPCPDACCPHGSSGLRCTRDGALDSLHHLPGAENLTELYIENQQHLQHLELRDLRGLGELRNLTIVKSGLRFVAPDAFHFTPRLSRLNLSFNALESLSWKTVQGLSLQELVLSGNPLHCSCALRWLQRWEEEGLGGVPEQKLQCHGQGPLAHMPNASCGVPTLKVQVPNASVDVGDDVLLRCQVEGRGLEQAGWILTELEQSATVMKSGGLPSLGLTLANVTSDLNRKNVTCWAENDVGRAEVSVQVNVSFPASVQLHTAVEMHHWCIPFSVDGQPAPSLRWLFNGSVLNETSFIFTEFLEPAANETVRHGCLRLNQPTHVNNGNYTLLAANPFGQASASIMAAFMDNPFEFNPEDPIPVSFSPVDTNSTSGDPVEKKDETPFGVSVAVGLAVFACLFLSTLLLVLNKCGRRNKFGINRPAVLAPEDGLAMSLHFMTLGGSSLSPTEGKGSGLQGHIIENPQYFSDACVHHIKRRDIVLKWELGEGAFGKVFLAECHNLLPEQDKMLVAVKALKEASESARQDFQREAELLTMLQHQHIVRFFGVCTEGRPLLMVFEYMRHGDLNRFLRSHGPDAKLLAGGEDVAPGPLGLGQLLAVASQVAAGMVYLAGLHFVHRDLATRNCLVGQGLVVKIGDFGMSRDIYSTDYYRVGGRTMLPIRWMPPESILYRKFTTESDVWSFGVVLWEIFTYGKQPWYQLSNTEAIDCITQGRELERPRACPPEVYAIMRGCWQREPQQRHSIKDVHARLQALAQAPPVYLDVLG
Assay [11] has as its target Mast/stem cell growth factor receptor Kit (Homo sapiens) (UniProt P10721). Briefly: Inhibition of human recombinant His-tagged KIT cytoplasmic domain (544 to 976 residues) expressed in baculovirus expression system at 1 uM.
The target of assay [12] is Tyrosine-protein kinase JAK1 (Homo sapiens) (UniProt P23458). Nature of the assay: Inhibition of human recombinant GST-tagged JAK1 cytoplasmic domain (866 to 1154 residues) expressed in baculovirus expression system at 1 uM.
In assay [13] the target is Phosphatidylinositol 4-phosphate 3-kinase C2 domain-containing subunit alpha (Homo sapiens) (UniProt O00443). Briefly: Inhibition of human recombinant N-terminal GST-tagged PIK3C2A catalytic domain expressed in baculovirus expression system at 1 uM.
Chain of Phosphatidylinositol 4-phosphate 3-kinase C2 domain-containing subunit alpha (Homo sapiens) (O00443 whole entry, the tested form may be a part): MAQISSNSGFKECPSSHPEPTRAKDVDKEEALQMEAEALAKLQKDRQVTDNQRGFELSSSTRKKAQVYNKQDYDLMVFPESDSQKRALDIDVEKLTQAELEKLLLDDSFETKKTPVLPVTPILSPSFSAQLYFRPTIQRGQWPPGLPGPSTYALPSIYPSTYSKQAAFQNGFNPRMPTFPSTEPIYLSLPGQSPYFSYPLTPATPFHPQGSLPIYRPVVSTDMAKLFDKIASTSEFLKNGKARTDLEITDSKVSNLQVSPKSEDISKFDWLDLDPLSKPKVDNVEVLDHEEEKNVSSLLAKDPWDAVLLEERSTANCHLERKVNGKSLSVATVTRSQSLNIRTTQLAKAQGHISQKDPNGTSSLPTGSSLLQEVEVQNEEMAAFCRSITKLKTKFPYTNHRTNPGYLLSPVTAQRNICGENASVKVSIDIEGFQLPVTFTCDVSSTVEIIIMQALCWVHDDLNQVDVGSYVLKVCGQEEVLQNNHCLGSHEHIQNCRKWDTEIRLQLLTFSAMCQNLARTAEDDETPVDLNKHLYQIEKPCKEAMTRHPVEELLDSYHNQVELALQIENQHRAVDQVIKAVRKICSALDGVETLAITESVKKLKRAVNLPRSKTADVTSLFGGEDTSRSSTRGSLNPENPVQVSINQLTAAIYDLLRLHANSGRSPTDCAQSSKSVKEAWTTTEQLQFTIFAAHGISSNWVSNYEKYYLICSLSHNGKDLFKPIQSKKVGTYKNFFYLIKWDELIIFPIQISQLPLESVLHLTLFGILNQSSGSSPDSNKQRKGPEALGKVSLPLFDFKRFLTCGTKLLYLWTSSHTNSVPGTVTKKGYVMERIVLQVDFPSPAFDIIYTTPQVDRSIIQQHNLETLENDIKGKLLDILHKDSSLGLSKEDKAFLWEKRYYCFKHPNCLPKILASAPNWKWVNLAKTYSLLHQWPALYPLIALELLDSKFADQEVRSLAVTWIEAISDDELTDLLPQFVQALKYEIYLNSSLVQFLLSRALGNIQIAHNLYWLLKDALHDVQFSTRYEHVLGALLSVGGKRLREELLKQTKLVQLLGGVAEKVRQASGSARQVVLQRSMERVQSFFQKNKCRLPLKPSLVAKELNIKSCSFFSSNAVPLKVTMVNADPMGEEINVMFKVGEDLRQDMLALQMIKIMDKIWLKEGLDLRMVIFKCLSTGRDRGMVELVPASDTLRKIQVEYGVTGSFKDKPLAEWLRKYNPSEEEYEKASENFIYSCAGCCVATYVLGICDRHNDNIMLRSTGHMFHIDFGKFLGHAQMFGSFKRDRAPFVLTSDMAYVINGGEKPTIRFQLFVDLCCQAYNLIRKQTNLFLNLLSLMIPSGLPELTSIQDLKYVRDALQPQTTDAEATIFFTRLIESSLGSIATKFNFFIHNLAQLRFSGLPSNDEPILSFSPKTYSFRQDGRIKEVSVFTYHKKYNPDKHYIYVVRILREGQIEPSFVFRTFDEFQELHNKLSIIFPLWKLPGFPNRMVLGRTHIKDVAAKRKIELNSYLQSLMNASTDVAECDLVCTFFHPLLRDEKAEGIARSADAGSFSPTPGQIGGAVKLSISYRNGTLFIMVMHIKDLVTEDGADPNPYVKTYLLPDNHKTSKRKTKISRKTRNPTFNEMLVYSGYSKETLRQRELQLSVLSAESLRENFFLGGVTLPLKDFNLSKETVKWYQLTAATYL
For assay [14], the target named is Dual specificity protein kinase TTK (Homo sapiens) (UniProt P33981). Briefly: Inhibition of human recombinant full-length GST-tagged TTK expressed in baculovirus expression system at 1 uM.
For assay [15], the target named is Cyclin-dependent kinase 1 (Homo sapiens) (UniProt P06493). Nature of the assay: Inhibition of CDK1 (unknown origin) at 1 uM.
Chain of Cyclin-dependent kinase 1 (Homo sapiens) (P06493 whole entry, looked up, the tested form may be a part): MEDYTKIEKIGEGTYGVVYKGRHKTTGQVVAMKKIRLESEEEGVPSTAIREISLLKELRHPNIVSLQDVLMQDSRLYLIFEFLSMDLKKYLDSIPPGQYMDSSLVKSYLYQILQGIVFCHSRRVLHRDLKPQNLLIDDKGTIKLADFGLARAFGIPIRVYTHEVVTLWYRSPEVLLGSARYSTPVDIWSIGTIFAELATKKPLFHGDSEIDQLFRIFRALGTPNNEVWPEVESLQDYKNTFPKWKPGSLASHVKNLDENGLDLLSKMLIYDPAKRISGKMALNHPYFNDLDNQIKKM
The target in assay [16] is Vascular endothelial growth factor receptor 2 (Homo sapiens, UniProt P35968). Nature of the assay: Inhibition of human recombinant His-tagged KDR cytoplasmic domain (789 to 1356 residues) expressed in baculovirus expression system at 1 uM.
For assay [17], the target named is Serine/threonine-protein kinase Chk2 (Homo sapiens) (UniProt O96017). Briefly: Inhibition of human recombinant full-length His-tagged CHK2 expressed in baculovirus expression system at 1 uM.
In assay [18] the target is Serine/threonine-protein kinase Chk1 (Homo sapiens) (UniProt O14757). Briefly: Inhibition of human recombinant full-length His-tagged CHK1 expressed in baculovirus expression system at 1 uM.
Chain of Serine/threonine-protein kinase Chk1 (Homo sapiens) (O14757 whole entry, the tested form may be a part): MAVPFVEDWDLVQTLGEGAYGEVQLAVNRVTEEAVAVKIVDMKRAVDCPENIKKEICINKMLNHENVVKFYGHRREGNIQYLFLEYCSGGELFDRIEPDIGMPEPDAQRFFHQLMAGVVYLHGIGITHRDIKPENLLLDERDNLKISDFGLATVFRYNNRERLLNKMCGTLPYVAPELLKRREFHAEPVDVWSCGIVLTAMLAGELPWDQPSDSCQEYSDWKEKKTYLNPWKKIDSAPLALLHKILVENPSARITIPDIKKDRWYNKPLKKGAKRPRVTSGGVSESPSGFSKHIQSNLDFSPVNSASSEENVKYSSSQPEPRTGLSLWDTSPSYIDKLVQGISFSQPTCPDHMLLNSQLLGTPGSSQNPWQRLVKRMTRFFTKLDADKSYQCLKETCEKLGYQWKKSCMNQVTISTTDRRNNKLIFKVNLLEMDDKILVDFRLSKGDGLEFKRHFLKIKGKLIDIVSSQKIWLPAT
Assay [19] deals with Platelet-derived growth factor receptor beta (Homo sapiens) (UniProt P09619). Nature of the assay: Inhibition of human recombinant His-tagged PDGFRbeta cytoplasmic domain (558 to 1106 residues) expressed in baculovirus expression system at 1 uM.
The target of assay [20] is Vascular endothelial growth factor receptor 3 (Homo sapiens, UniProt P35916). Briefly: Inhibition of human recombinant GST-tagged FLT4 cytoplasmic domain (800 to 1297 residues) expressed in baculovirus expression system at 1 uM.
Assay [21] has as its target Receptor-type tyrosine-protein kinase FLT3 (Homo sapiens) (UniProt P36888). Nature of the assay: Inhibition of human recombinant His-tagged FLT3 cytoplasmic domain (564 to 958 residues) expressed in baculovirus expression system at 1 uM.
Assay [22] deals with Tyrosine-protein kinase ABL1 (Homo sapiens) (UniProt P00519). Briefly: Inhibition of human recombinant full-length His-tagged ABL1 cytoplasmic domain expressed in baculovirus expression system at 1 uM.
The target in assay [23] is Rho-associated protein kinase 1 (Homo sapiens) (UniProt Q13464). Briefly: Inhibition of human recombinant GST-tagged ROCK1 catalytic domain (1 to 535 residues) expressed in baculovirus expression system at 1 uM.
The target in assay [24] is T1, Aurora kinase B. Briefly: Inhibition of human recombinant full-length His-tagged Aurora B expressed in baculovirus expression system at 1 uM.
Assay [25] has as its target Platelet-derived growth factor receptor alpha (Homo sapiens) (UniProt P16234). Nature of the assay: Inhibition of human recombinant GST-tagged PDGFRalpha cytoplasmic domain (550 to 1089 residues) expressed in baculovirus expression system at 1 uM.
Another assay deals with Aurora kinase C (Homo sapiens, UniProt Q9UQB9). Briefly: Inhibition of human recombinant full-length N-terminal GST-tagged Aurora C (1 to 275 end residues) expressed in baculovirus expression system using GLRRASLG-NH2 as substrate after 20 mins in presence of [gamma-33P]-ATP by liquid scintillation counting.

T1 sequence (Q96GD4 whole entry): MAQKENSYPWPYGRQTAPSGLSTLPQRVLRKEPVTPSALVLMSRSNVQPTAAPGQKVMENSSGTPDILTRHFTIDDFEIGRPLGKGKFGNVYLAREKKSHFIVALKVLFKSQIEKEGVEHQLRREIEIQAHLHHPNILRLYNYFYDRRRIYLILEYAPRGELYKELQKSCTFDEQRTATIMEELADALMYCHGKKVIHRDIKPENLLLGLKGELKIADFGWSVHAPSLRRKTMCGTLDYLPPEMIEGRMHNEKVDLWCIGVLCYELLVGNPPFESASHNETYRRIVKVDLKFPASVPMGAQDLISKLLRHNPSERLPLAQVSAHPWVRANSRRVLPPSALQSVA
Chain of Vascular endothelial growth factor receptor 1 (P17948 whole entry, the tested form may be a part): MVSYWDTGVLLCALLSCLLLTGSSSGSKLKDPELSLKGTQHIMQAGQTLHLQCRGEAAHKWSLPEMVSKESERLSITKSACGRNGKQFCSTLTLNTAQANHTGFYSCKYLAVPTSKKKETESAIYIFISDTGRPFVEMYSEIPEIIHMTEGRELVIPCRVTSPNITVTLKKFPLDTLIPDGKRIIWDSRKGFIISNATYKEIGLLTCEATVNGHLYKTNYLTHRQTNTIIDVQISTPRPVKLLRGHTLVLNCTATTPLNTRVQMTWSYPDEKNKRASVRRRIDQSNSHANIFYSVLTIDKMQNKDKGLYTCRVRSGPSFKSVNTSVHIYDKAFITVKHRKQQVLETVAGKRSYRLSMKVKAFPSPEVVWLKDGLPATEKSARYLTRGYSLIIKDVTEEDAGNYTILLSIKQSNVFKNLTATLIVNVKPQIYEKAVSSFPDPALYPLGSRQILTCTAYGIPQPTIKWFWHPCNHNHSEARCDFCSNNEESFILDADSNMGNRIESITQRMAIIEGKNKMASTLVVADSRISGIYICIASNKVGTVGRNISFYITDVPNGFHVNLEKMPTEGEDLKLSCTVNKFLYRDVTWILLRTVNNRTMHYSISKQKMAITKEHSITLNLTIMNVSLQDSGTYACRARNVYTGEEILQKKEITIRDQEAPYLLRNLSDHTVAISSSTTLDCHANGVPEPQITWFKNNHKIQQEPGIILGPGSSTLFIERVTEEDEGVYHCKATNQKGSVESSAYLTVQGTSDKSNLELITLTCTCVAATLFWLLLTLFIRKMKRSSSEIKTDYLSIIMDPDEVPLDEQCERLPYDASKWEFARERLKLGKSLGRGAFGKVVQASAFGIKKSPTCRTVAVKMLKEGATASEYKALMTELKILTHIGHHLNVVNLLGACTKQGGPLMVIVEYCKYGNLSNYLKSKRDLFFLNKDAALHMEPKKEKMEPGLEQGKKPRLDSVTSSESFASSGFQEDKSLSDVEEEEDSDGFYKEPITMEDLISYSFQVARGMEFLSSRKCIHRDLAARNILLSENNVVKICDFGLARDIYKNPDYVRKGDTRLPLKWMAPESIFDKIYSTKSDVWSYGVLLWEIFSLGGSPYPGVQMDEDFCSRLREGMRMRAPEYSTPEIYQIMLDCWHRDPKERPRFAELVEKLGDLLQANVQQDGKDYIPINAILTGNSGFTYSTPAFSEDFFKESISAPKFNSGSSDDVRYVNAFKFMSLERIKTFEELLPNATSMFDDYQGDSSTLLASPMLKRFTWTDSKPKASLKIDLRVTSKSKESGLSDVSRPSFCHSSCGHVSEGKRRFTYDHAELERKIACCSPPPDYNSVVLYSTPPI

In the case of `CC#CC(=O)Nc1cccc(-c2n[nH]c3ccc(NS(=O)(=O)c4ccccc4)cc23)c1`, in assay [1], the GI50 stood at 3600 nM. The IC50 at Aurora kinase B [2] is above 1000 nM.
The molecule `O=C(O)/C=C\C(=O)Nc1cccc(-c2n[nH]c3ccc(NS(=O)(=O)c4ccc(-c5ccccc5)cc4)cc23)c1` gave a GI50 in assay [1] above 20000 nM.
Regarding `O=C(O)/C=C\C(=O)Nc1cccc(-c2n[nH]c3ccc(NS(=O)(=O)c4ccc([N+](=O)[O-])cc4)cc23)c1`, the GI50 in [1] was above 20000 nM. In addition, the concentration for half-maximal inhibition (IC50) on Aurora kinase B [2] was found to be 26 nM.
As to `Cc1ccc(S(=O)(=O)Nc2ccc3[nH]nc(-c4cccc(NC(=O)/C=C\C(=O)O)c4)c3c2)cc1`, in [1], the 50% growth inhibitory concentration (GI50) was above 20000 nM. This molecule yielded a half-maximal inhibitory concentration (IC50) at Aurora kinase B [2] of 32 nM.
Taken in the same sequence, the figures for `O=C(O)/C=C\C(=O)Nc1cccc(-c2n[nH]c3ccc(NS(=O)(=O)c4ccc(F)cc4)cc23)c1` were above 20000 nM and 30 nM.
Taken in the same sequence, the figures for `O=C(O)CCC(=O)Nc1cccc(-c2n[nH]c3ccc(NS(=O)(=O)c4ccccc4)cc23)c1` were above 20000 nM and 28 nM.
Turning to `O=C(O)/C=C\C(=O)Nc1cccc(-c2n[nH]c3ccc(NS(=O)(=O)c4ccccc4)cc23)c1`, the inhibition in [3] came out at 94%; in assay [4], 1%; in assay [5], 8%; in assay [6], 61%; in assay [7], 48%; in [8], 17%. Further, the inhibition was 20% in [9]; 58% in assay [10]; -4% in [11]; 39% in assay [12]; 1% in [13]; 93% in assay [14]. Moreover, the inhibition in [15] is 21%; in assay [16], 48%; in assay [17], 8%; in assay [18] it was 16%; in [19] it was -2%; in assay [20] it was 64%. Moreover, the inhibition in [21] came to 85%; in assay [22], 31%; in assay [23], 10%; on Aurora kinase B [24], 89%; in assay [25], 24%. This molecule displayed a 50% growth inhibitory concentration (GI50) in assay [1] above 20000 nM. Moreover, on Aurora kinase B [2], the midpoint of inhibition, the IC50, lay at 15 nM.
In [1], `NC(=O)CCC(=O)Nc1cccc(-c2n[nH]c3ccc(NS(=O)(=O)c4ccccc4)cc23)c1` displayed a GI50 above 20000 nM. The molecule also displayed an IC50 on Aurora kinase B [2] of 49 nM.
On to `O=C(O)/C=C/C(=O)Nc1cccc(-c2n[nH]c3ccc(NS(=O)(=O)c4ccccc4)cc23)c1`, for which, in assay [1], the concentration for 50% growth inhibition (GI50) was above 20000 nM.
With `O=C(O)[C@]1(Cc2cccc(Nc3nccs3)n2)CC[C@@H](Oc2cccc(Cl)c2F)CC1` [MK-5108], on Aurora kinase C, the IC50 was determined as 12 nM.
Consider `COc1ccc(S(=O)(=O)Nc2ccc3[nH]nc(-c4cccc(NC(=O)/C=C\C(=O)O)c4)c3c2)cc1`, for which the concentration for 50% growth inhibition (GI50) in assay [1] is above 20000 nM. In addition, on Aurora kinase B [2], half-maximal inhibition (IC50) required 31 nM.
In assay [1], `CCOC(=O)CCC(=O)Nc1cccc(-c2n[nH]c3ccc(NS(=O)(=O)c4ccccc4)cc23)c1` returned a concentration for 50% growth inhibition (GI50) of 1900 nM. Further, the IC50 on Aurora kinase B [2] came out at 64 nM.
For the molecule `CC(C)(C)c1ccc(S(=O)(=O)Nc2ccc3[nH]nc(-c4cccc(NC(=O)/C=C\C(=O)O)c4)c3c2)cc1`, in [1], the 50% growth inhibitory concentration (GI50) is above 20000 nM.
Molecule `CC(C)OC(=O)CCC(=O)Nc1cccc(-c2n[nH]c3ccc(NS(=O)(=O)c4ccccc4)cc23)c1` registered a GI50 in [1] above 20000 nM. On Aurora kinase B [2], this molecule registered an IC50 of 220 nM.
Regarding `COC(=O)CCC(=O)Nc1cccc(-c2n[nH]c3ccc(NS(=O)(=O)c4ccccc4)cc23)c1`, in [1], growth was halved (GI50) at 12000 nM. On Aurora kinase B [2], this molecule displayed an IC50 of 48 nM.
